Reference: US8518891B2 (priority 2006, dated 2013)
Several values for one entry are separate records, joined by “and”; a condition that tells them apart may be missing. Equal values may be shown once. Read-outs that look alike come from different tables or passages of the source. Numbered stars: 1 amine (or outer) side, 2 acyl side, 3 side chain; on linkers, the order of the positions; unused ones are H or OH. Square brackets hold non-standard residues; d marks the D form. Peptide text beside a SMILES is read from it. * marks the point of attachment. X5 = NP(=O)(OCc1c(F)c(F)c(N*)c(F)c1F)N(CCCl)CCCl; X4 = NP(=O)(OCc1c(F)cc(N*)cc1F)N(CCCl)CCCl; X2 = NP(=O)(OCc1ccc(N*)c(F)c1)N(CCCl)CCCl; X1 = NP(=O)(OCc1ccc(N*)cc1F)N(CCCl)CCCl; X3 = NP(=O)(OCc1ccc(N*)cc1)N(CCCl)CCCl; Glutaryl = O=C(CCCC(=O)[*:2])[*:1]; Hyp = O=C(O)[C@@H]1C[C@@H](O)CN1; Chg = N[C@H](C(=O)O)C1CCCCC1

How the values were obtained:
[1] = test system: LNCaP human prostate cancer cell line; test: In vitro antiproliferative activity assay in PSA-producing LNCaP cells; assay type: cell-based; conditions: 72 h drug exposure
From the text: (§1) Furthermore, analogs 5b and 5c were synthesized with an electron-withdrawing fluorine atom at C2 (5b) and C3 (5c), respectively.

PSA = PSA (Homo sapiens, UniProt P07288); test: PSA cleavage of peptide-linker-drug conjugates, disappearance monitored by HPLC; assay type: biochemical; conditions: for half-life: PSA, in the presence of PSA; for Stability Ratio between T1/2 in the absence and presence of PSA: T1/2 (-PSA) / T1/2 (+PSA)
Description: (§2) First, the stability and PSA cleavage of glutaryl-Hyp-Ala-Ser-Chg-Gln-aminobenzyl phosphoramide mustard without substitutions on the benzyl ring (5a) was tested by monitoring the disappearance of the peptide-linker-drug conjugate using HPLC. […] Thus, peptide-linker-drug conjugate 5a is a substrate of PSA. The hydrolysis in the presence of PSA was 40 times faster than that in the absence of PSA. But, the instability in the absence of PSA was a concern. This instability can be addressed by introducing an electron-withdrawing fluorine atom on the aromatic ring as shown in Table 1. […] In the presence of PSA, they were more quickly hydrolyzed with t½of 43 and 57 min, respectively.

[2] = test system: DU145 human prostate cancer cell line; test: In vitro antiproliferative activity assay in non-PSA-producing DU145 cells; assay type: cell-based; conditions: 72 h drug exposure
From the text: as §1

[3] = Stability of peptide-linker-drug conjugates in the absence of PSA, disappearance monitored by HPLC; assay type: physicochemical; conditions: for half-life: 0.1 M phosphate buffer, pH 7.4, 37° C., read-out: T1/2 -PSA (stability) (converted); for Stability relative to 5a in the absence of PSA: in words
Description: as §2

[4] = read-out: T1/2 +PSA (PSA-catalyzed cleavage) (converted)
[5] = read-out: t½ in the presence of PSA

Chain of PSA (P07288 25-261): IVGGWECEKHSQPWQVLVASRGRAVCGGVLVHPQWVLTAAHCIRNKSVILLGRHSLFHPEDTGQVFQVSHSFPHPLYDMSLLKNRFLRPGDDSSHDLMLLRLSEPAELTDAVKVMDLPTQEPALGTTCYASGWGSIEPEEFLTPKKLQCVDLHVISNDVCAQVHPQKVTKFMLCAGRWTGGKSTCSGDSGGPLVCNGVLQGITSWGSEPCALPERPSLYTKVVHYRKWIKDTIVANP

Row | Compound | IC50 [1] | half-life (PSA; [4]) | Stability Ratio between T1/2 in the absence and presence of PSA (PSA) | IC50 [2] | half-life [3] | half-life (PSA; [5]) | Stability relative to 5a in the absence of PSA [3]
1 | C[C@H](NC(=O)[C@@H]1C[C@@H](O)CN1C(=O)CCCC(=O)O)C(=O)N[C@@H](CO)C(=O)N[C@H](C(=O)N[C@@H](CCC(N)=O)C(=O)Nc1ccc(COP(N)(=O)N(CCCl)CCCl)cc1)C1CCCCC1 (stereo partly drawn) [5a, glutaryl-Hyp-Ala-Ser-Chg-Gln-NH-benzyl phosphoramide mustard] (Glutaryl-[Hyp]AS[Chg]Q-X3) | 11 µM | 1.2 h | 40 | ~35 µM and 35 µM | 48 h |  | 
2 | C[C@H](NC(=O)[C@@H]1C[C@@H](O)CN1C(=O)CCCC(=O)O)C(=O)N[C@@H](CO)C(=O)N[C@H](C(=O)N[C@@H](CCC(N)=O)C(=O)Nc1ccc(COP(N)(=O)N(CCCl)CCCl)c(F)c1)C1CCCCC1 (stereo partly drawn) [5b, glutaryl-Hyp-Ala-Ser-Chg-Gln-NH-2-fluorobenzyl phosphoramide mustard] (Glutaryl-[Hyp]AS[Chg]Q-X1) | 5.3 µM | 0.93 h | 113 | > 100 µM | 105 h | 0.717 h | much more stable than 5a
3 | C[C@H](NC(=O)[C@@H]1C[C@@H](O)CN1C(=O)CCCC(=O)O)C(=O)N[C@@H](CO)C(=O)N[C@H](C(=O)N[C@@H](CCC(N)=O)C(=O)Nc1ccc(COP(N)(=O)N(CCCl)CCCl)cc1F)C1CCCCC1 (stereo partly drawn) [5c, glutaryl-Hyp-Ala-Ser-Chg-Gln-NH-3-fluorobenzyl phosphoramide mustard] (Glutaryl-[Hyp]AS[Chg]Q-X2) | 29 µM | 0.65 h | 711 | > 100 µM | 462 h | 0.95 h | much more stable than 5a
4 | C[C@H](NC(=O)[C@@H]1C[C@@H](O)CN1C(=O)CCCC(=O)O)C(=O)N[C@@H](CO)C(=O)N[C@H](C(=O)N[C@@H](CCC(N)=O)C(=O)Nc1cc(F)c(COP(N)(=O)N(CCCl)CCCl)c(F)c1)C1CCCCC1 (stereo partly drawn) [5d, glutaryl-Hyp-Ala-Ser-Chg-Gln-NH-2,6-difluorobenzyl phosphoramide mustard] (Glutaryl-[Hyp]AS[Chg]Q-X4) | 20 µM | 1.75 h | 75 | > 100 µM | 131 h |  | 
5 | C[C@H](NC(=O)[C@@H]1C[C@@H](O)CN1C(=O)CCCC(=O)O)C(=O)N[C@@H](CO)C(=O)N[C@H](C(=O)N[C@@H](CCC(N)=O)C(=O)Nc1c(F)c(F)c(COP(N)(=O)N(CCCl)CCCl)c(F)c1F)C1CCCCC1 (stereo partly drawn) [5e, glutaryl-Hyp-Ala-Ser-Chg-Gln-NH-2,3,5,6-tetrafluorobenzyl phosphoramide mustard] (Glutaryl-[Hyp]AS[Chg]Q-X5) | > 100 µM | 1.1 h | 162 | > 100 µM | 178 h |  | 
